Literature values as cited in patent US20240173338A1, “PREPARATION AND ACTIVITY CHARACTERIZATION OF CANNABICITRAN ENANTIOMERS” (University of North Carolina at Wilmington, priority 2022, published 2024).

Key:
[1] = target: GPR55 (Homo sapiens, UniProt Q9Y2T6)
[2] = tested on: multiple TRPs
[3] = target: T1, 5-HT1A (Homo sapiens, UniProt P08908)
T1 sequence (P08908 1-422): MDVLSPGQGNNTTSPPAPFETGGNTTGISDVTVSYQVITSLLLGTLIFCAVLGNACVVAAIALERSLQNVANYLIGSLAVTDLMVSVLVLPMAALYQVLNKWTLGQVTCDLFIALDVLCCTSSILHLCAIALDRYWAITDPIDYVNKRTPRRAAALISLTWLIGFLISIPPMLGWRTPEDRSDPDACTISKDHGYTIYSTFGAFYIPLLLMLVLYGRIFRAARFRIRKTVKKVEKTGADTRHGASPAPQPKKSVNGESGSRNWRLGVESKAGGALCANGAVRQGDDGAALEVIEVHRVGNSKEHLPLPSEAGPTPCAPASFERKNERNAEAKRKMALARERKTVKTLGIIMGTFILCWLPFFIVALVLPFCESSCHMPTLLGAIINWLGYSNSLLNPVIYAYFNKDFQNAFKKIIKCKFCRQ

[4] = rabbits
[5] = target: CB2 (Homo sapiens, UniProt P34972)
Sequence of CB2 (P34972 whole entry, species assumed): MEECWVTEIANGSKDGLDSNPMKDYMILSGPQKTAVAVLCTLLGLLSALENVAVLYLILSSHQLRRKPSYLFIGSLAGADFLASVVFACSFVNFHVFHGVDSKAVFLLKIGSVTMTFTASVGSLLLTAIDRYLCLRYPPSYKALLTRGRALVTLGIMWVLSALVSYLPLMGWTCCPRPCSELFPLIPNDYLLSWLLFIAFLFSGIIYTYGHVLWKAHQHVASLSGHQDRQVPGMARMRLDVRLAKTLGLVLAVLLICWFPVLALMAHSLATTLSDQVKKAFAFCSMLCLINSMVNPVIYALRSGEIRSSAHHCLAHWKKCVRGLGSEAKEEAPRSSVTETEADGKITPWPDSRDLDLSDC

[6] = target: CB1 (Homo sapiens, UniProt P21554)
Sequence of CB1 (P21554 whole entry, species assumed): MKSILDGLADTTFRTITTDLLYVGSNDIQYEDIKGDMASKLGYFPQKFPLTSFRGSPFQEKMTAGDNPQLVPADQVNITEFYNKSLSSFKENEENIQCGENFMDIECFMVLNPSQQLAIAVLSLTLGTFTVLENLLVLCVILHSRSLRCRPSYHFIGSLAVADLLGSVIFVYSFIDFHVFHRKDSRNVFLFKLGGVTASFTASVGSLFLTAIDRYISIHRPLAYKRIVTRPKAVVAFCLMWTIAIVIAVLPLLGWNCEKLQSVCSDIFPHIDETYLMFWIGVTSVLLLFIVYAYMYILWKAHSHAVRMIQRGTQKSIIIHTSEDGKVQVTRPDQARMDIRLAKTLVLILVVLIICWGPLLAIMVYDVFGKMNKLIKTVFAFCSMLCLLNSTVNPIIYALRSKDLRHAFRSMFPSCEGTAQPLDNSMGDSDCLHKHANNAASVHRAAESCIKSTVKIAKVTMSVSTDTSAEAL

Sequence of GPR55 (Q9Y2T6 whole entry, species assumed): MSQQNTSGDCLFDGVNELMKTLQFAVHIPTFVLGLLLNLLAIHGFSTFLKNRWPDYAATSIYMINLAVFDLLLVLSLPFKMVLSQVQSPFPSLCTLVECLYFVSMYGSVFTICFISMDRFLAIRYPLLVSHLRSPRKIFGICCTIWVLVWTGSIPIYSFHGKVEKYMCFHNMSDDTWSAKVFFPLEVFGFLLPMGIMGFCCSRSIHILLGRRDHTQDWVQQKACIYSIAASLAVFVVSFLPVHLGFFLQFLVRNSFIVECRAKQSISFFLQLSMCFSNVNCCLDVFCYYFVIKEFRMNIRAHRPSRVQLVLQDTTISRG

trans-CBD [(−)-2]
binding to GPR55 [1]: known to bind | binding to multiple TRPs [2]: known to bind | binding to 5-HT1A [3]: known to bind

CCCCCc1cc2c3c(c1)O[C@]1(C)CC[C@@H]([C@H]3C1)C(C)(C)O2 [CBT-C (3), cannabicitran]
effect on intraocular pressure [4]: reduces intraocular pressure

trans-CBD [(+)-2]
binding to CB2 [5]: bind strongly | binding to CB1 [6]: bind strongly
